Values joined by “and” are separate entries in the source; they are usually repeats but may differ in a detail not shown here. Equal values may be shown once. Where only a bound is given, the exact number is not on record here.

The values that follow come from PubChem BioAssay AID2060508 (Molecular Pharmacology Branch, DTP, NCI, 2025).

The test system of this test is 454973-116-R2-J3-PDC spheroids, viability, % test/control. The test can be described thus: Anticancer human tumor 454973-116-R2-J3-PDC patient-derived pancreatic carcinoma cell line growth inhibition [GQUAD]. The conditions noted are these: spheroids with HUVEC and MSC; for viability, T/C: stronger effect = lower value. The source says: DNA G-quadruplex Stabilizer Agents in Combinations in Complex Spheroids
A high-throughput screen of multi-cell type tumor spheroids was designed to identify active combinations of DNA G-quadruplex stabilizer agents and targeted small molecules. Complex spheroids include a stromal component modeled by human endothelial cells (HUVEC) and fibroblasts modeled by human mesenchymal stem cells (MSCs). The concentration ranges selected for each drug and investigational agent were based upon clinically achievable concentrations if the clinical Cmax of the agent was known.
Compounds. The drugs and investigational agents: pidnarulex (CX-5461; NSC782164), APTO-253 (NSC789042), BRACO-19 (NSC847499), peposertib (NSC802822), ceralasertib (NSC780249), elimusertib (NSC800525), camonsertib (NSC841442), AZD-1390 (NSC803789), olaparib (NSC753686), talazoparib (NSC767125), ART-558 (NSC835418), sotorasib (NSC818433), MRTX-1133 (NSC836407), SN-38 (NSC673596), topotecan (NSC609699), etoposide (NSC141540), doxorubicin (NSC123127), gemcitabine (NSC613327), 5-fluorouracil (NSC19893), paclitaxel (NSC125973), vemurafenib (NSC761431), panobinostat (NSC761190), R-306465 (JNJ-16241199; NSC773264), adavosertib (NSC754352), TP-3654 (NSC805149), carboplatin (NSC241240), KSQ-4279 (NSC840948), and staurosporine (NSC755774) were obtained from the National Cancer Institute (NCI) Developmental Therapeutics Program Chemical Repository (34). The FDA-approved anticancer drug set is available from the NCI Developmental Therapeutics Program. […] The stock solutions were prepared in dimethyl sulfoxide (DMSO, Sigma-Aldrich, St. Louis, MO, cat. D2650) at 800-fold the tested concentration and stored at -70 degrees C prior to their use. All drugs and investigational agents were tested over a range starting from a high concentration at or near the clinical Cmax and decreasing in half-log increments. If the clinical Cmax for an agent had not been determined, the highest concentration tested was 10 microM.
2.3 Cell Culture. All cells were maintained in an incubator at 37 degrees C and 5% CO2 with 95% humidity. The PDC lines were cultured according to standard operating procedures established by the NCI PDMR. All PDCs were thawed and cultured in Matrigel-coated flasks prepared with a working solution of 1X Ham's F-12 nutrient mix, without supplementation (Invitrogen, cat. 11765054), 100 U/mL penicillin-streptomycin (Invitrogen, cat. 15140122), and 2.5% Matrigel (Corning Inc., cat. 354248) for the first three passages. The 857933-349-R-J2-PDC line was cultured in 6C/Colon 1B media, which includes advanced DMEM/F-12 (Thermo Fisher Scientific, cat. 12634028), 10 mM HEPES (Thermo Fisher Scientific, cat. 15630080), 1X GlutaMAX supplement (Thermo Fisher Scientific, cat. 35050061), 0.1 mg/mL primocin (InvivoGen, cat. ant-pm-2), 10% defined fetal bovine serum, heat inactivated (HyClone Laboratories Inc., cat. SH30070.03HI), 50% L-WRN conditioned media (ATCC, cat. CRL-3276), 1.25 mM N-Acetyl-L-cysteine (Sigma-Aldrich, cat. A9165), 10 mM nicotinamide (Sigma-Aldrich, cat. N0636), 1X B-27 supplement (Thermo Fisher Scientific, cat. 17504044), 1X N-2 supplement (Thermo Fisher Scientific, cat. 17502048), 10 microM Y-27632 dihydrochloride (Tocris Bioscience, cat. 1254), and 50 ng/mL human EGF recombinant protein (Thermo Fisher Scientific, cat. PHG0311). The 485176-168-R4-J1-PDC line was cultured in Panc media, which includes all 6C/Colon 1B media components plus 100 ng/mL human FGF-10 (Thermo Fisher Scientific, cat. 100-26), 500 nM SB-431542 (Selleckchem, cat. S1067), and gastrin (Tocris, cat. 3006).
[…]
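Further: spheroids exposed to compounds for seven days.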

For orientation: viability, T/C means the result in the treated group divided by that in the control group, in per cent. By IC50 is commonly meant the concentration that gives 50% inhibition. For the molecule `C=CC(=O)N1CCN(c2nc(=O)n(-c3c(C)ccnc3C(C)C)c3nc(-c4c(O)cccc4F)c(F)cc23)C(C)C1` (stereo not drawn), the viability, T/C is, setting by setting: (compound 0.0316 µM) 105% and 109% and 98.9%; (compound 0.1 µM) 108% and 100% and 98.3%; (compound 0.316 µM) 108% and 105% and 116%; (compound 1 µM) 111% and 116% and 110%; (compound 3.16 µM) 111% and 110% and 115%; (compound 10 µM) 115% and 108% and 109%. Also, the IC50 (curve of compound) is > 10 µM.
With `CC(C)n1c(=O)n(C)c2cnc3cc(F)c(-c4ccc(OCCCN5CCCCC5)nc4)cc3c21`, the viability, T/C was 104% and 111% and 96.6% (compound 0.0316 µM); 103% and 98.6% and 97.8% (compound 0.1 µM); 97.7% and 102% and 92.9% (compound 0.316 µM); 101% and 92.8% and 92.4% (compound 1 µM); 91.9% and 89.9% and 91.4% (compound 3.16 µM); 64% and 74.3% and 68.2% (compound 10 µM). In addition, the IC50 (curve of compound) was > 10 µM.
For the molecule `CC1COCCN1c1cc(-c2ccnn2C)c2ccnc(-c3ccn[nH]3)c2n1` (stereo not drawn), the viability, T/C was 93.7% and 96.6% and 80.7% (compound 0.0316 µM); 60.6% and 68% and 55.6% (compound 0.1 µM); 29.6% and 31.4% and 26.2% (compound 0.316 µM); 26.3% and 24% and 18.6% (compound 1 µM); 26.5% and 25.6% and 19.4% (compound 3.16 µM); 24.5% and 24% and 22.7% (compound 10 µM). In addition, the IC50 (curve of compound) is 0.148 µM and 0.176 µM and 0.124 µM.
As to `CC1COCCN1c1cc(C2(O)CC3CCC(C2)O3)c2cnn(-c3ccn[nH]3)c2n1` (stereo not drawn), the viability, T/C reads like this: (compound 0.0316 µM) 84.7% and 87.2% and 97.5%; (compound 0.1 µM) 58.4% and 59.4% and 64.2%; (compound 0.316 µM) 26.5% and 26.1% and 27.2%; (compound 1 µM) 18% and 21.5% and 23.2%; (compound 3.16 µM) 17.8% and 23.5% and 22.9%; (compound 10 µM) 12% and 10.9% and 14.2%. Moreover, the IC50 (curve of compound) is 0.135 µM and 0.139 µM and 0.157 µM.
For the molecule `CC1COCCN1c1cc(C2(S(C)(=N)=O)CC2)nc(-c2ccnc3[nH]ccc23)n1` (stereo not drawn), the viability, T/C runs as follows: (compound 0.0316 µM) 104% and 101% (2×); (compound 0.1 µM) 108% (2×) and 109%; (compound 0.316 µM) 106% (2×) and 113%; (compound 1 µM) 100% and 96.2% and 104%; (compound 3.16 µM) 67.5% and 72.8% and 72.2%; (compound 10 µM) 30% and 37.2% and 31.8%. Also, the IC50 (curve of compound) is 5.41 µM and 6.58 µM and 5.95 µM.
For `CC[C@@]1(O)C(=O)OCc2c1cc1n(c2=O)Cc2cc3c(CN(C)C)c(O)ccc3nc2-1`, the viability, T/C was 104% (2×) and 105% (compound 0.000999 µM); 108% and 109% and 101% (compound 0.00316 µM); 97.4% and 95.7% and 98.8% (compound 0.00999 µM); 63.9% and 62.8% and 59.8% (compound 0.0316 µM); 18.8% and 18.6% and 21.4% (compound 0.0999 µM); 22% and 21.9% and 23.2% (compound 0.316 µM). Moreover, the IC50 (curve of compound) is 0.0456 µM and 0.0442 µM and 0.0427 µM.
As for `CCc1c2c(nc3ccc(O)cc13)-c1cc3c(c(=O)n1C2)COC(=O)[C@]3(O)CC`, the viability, T/C runs as follows: (compound 0.000999 µM) 67.3% and 74.7% and 64.5%; (compound 0.00316 µM) 29.2% and 22.9% and 21.4%; (compound 0.00999 µM) 22.2% and 25.2% and 19.8%; (compound 0.0316 µM) 14.2% and 15.5% and 15.7%; (compound 0.0999 µM) 9.13% and 8.23% and 8.16%; (compound 0.316 µM) 4.31% and 4.99% and 4.01%. The IC50 (curve of compound) is 0.00176 µM and 0.00183 µM and 0.00151 µM.
Take `CN(C)c1ccc(Nc2c3ccc(NC(=O)CCN4CCCC4)cc3nc3cc(NC(=O)CCN4CCCC4)ccc23)cc1`: the viability, T/C (compound 0.0316 µM) is 107% [middle of 12 runs]; the viability, T/C (compound 0.1 µM) was 106% [middle of 12 runs]; the viability, T/C (compound 0.316 µM) was 103% [middle of 12 runs]; the viability, T/C (compound 1 µM) is 98.5% [middle of 12 runs]; the viability, T/C (compound 3.16 µM) is 94.8% [middle of 12 runs]; the viability, T/C (compound 10 µM) was 74% [middle of 12 runs]. In addition, the IC50 (compound alone, run of 04/22/2024) is > 10 µM.
With `COc1cc(C2c3cc4c(cc3C(OC3OC5COC(C)OC5C(O)C3O)C3COC(=O)C23)OCO4)cc(OC)c1O` (stereo not drawn), the viability, T/C is, setting by setting: (compound 0.0316 µM) 106% and 98.1% and 115%; (compound 0.1 µM) 94.7% and 92.3% and 78.7%; (compound 0.316 µM) 85.6% and 89.4% and 87.1%; (compound 1 µM) 55.2% and 52.1% and 61.5%; (compound 3.16 µM) 23.5% and 22.8% and 25.1%; (compound 10 µM) 15.8% and 12.7% and 15.5%. In addition, where the note is “curve of compound”, the IC50 was 1.17 µM and 1.13 µM and 1.39 µM.
